The supplement of paper PMC10307832

Assays:
Assay in all cases: relative viability (nuclei count vs DMSO), 5 days (fraction); higher = more cells survive
[1] = test system: HCC-827
How it was run: (§1)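 Relative viability was taken as the ratio of nuclei in treated wells to nuclei in vehicle wells. Lung cancer cell lines in 1536-well plates received compounds by pin tool one day after seeding, either one drug alone or a fixed anchor-drug dose plus five library-drug doses (not always all listed) in √10 steps. Nuclei were counted on 4× images after 5 days of treatment, and values are medians of duplicate plates.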

[2] = test system: LCLC-103H
How it was run: as §1

[3] = test system: H3255
How it was run: as §1

[4] = test system: NCI-H2405
How it was run: as §1

[5] = test system: NCI-H2087
How it was run: as §1

[6] = test system: ChaGo-K-1
How it was run: as §1

[7] = test system: NCI-H520
How it was run: as §1

[8] = test system: LU99A
How it was run: as §1

[9] = test system: NCI-H1563
How it was run: as §1

[10] = test system: COR-L23
How it was run: as §1

[11] = test system: NCI-H838
How it was run: as §1

[12] = test system: NCI-H2023
How it was run: as §1

[13] = test system: EPLC-272H
How it was run: as §1

[14] = test system: NCI-H2085
How it was run: as §1

[15] = test system: NCI-H1651
How it was run: as §1

[16] = test system: HCC-44
How it was run: as §1

[17] = test system: NCI-H650
How it was run: as §1

[18] = test system: EMC-BAC-2
How it was run: as §1

## O=c1cc(-c2cccc3c2Sc2ccccc2S3)oc(N2CCOCC2)c1 + CC(C)C[C@H](NC(=O)[C@H](Cc1ccccc1)NC(=O)c1cnccn1)B(O)O [Bortezomib] (partner 0.002 µM)
[1]; first compound 0.08 µM
  relative viability: 0.962
[1]; first compound 0.253 µM
  relative viability: 0.96
[1]; first compound 0.8 µM
  relative viability: 0.974
[1]; first compound 2.53 µM
  relative viability: 0.873
[1]; first compound 8 µM
  relative viability: 1.11
[2]; first compound 0.08 µM
  relative viability: 1.16
[2]; first compound 0.253 µM
  relative viability: 1.18
[2]; first compound 0.8 µM
  relative viability: 1.08
[2]; first compound 2.53 µM
  relative viability: 1.14
[2]; first compound 8 µM
  relative viability: 1.37
[3]; first compound 0.08 µM
  relative viability: 0.837
[3]; first compound 0.253 µM
  relative viability: 0.835
[3]; first compound 0.8 µM
  relative viability: 0.837
[3]; first compound 2.53 µM
  relative viability: 0.646
[3]; first compound 8 µM
  relative viability: 1.07
[4]; first compound 0.08 µM
  relative viability: 0.949
[4]; first compound 0.253 µM
  relative viability: 1.11
[4]; first compound 0.8 µM
  relative viability: 0.996
[4]; first compound 2.53 µM
  relative viability: 0.98
[4]; first compound 8 µM
  relative viability: 1.03
[5]; first compound 0.08 µM
  relative viability: 1.06
[5]; first compound 0.253 µM
  relative viability: 1.02
[5]; first compound 0.8 µM
  relative viability: 1.1
[5]; first compound 2.53 µM
  relative viability: 0.792
[5]; first compound 8 µM
  relative viability: 0.888
[6]; first compound 0.08 µM
  relative viability: 0.915
[6]; first compound 0.253 µM
  relative viability: 1.02
[6]; first compound 0.8 µM
  relative viability: 1.28
[6]; first compound 8 µM
  relative viability: 1.29
[7]; first compound 0.08 µM
  relative viability: 0.679
[7]; first compound 0.253 µM
  relative viability: 0.619
[7]; first compound 0.8 µM
  relative viability: 0.732
[7]; first compound 2.53 µM
  relative viability: 0.507
[7]; first compound 8 µM
  relative viability: 0.604
[8]; first compound 0.08 µM
  relative viability: 1.18
[8]; first compound 0.253 µM
  relative viability: 1.07
[8]; first compound 0.8 µM
  relative viability: 1.5
[8]; first compound 2.53 µM
  relative viability: 1.03
[8]; first compound 8 µM
  relative viability: 1.3
[9]; first compound 0.08 µM
  relative viability: 0.773
[9]; first compound 0.253 µM
  relative viability: 0.857
[9]; first compound 0.8 µM
  relative viability: 0.767
[9]; first compound 2.53 µM
  relative viability: 0.92
[9]; first compound 8 µM
  relative viability: 0.83
[10]; first compound 0.08 µM
  relative viability: 1.13
[10]; first compound 0.253 µM
  relative viability: 1.49
[10]; first compound 0.8 µM
  relative viability: 1.2
[10]; first compound 2.53 µM
  relative viability: 1
[10]; first compound 8 µM
  relative viability: 1.48
[11]; first compound 0.08 µM
  relative viability: 0.703
[11]; first compound 0.253 µM
  relative viability: 1.05
[11]; first compound 0.8 µM
  relative viability: 0.728
[11]; first compound 2.53 µM
  relative viability: 0.693
[11]; first compound 8 µM
  relative viability: 0.588
[12]; first compound 0.08 µM
  relative viability: 1
[12]; first compound 0.253 µM
  relative viability: 1.1
[12]; first compound 0.8 µM
  relative viability: 0.988
[12]; first compound 2.53 µM
  relative viability: 0.528
[12]; first compound 8 µM
  relative viability: 0.937
[13]; first compound 0.08 µM
  relative viability: 0.806
[13]; first compound 0.253 µM
  relative viability: 1.09
[13]; first compound 0.8 µM
  relative viability: 1.02
[13]; first compound 2.53 µM
  relative viability: 0.721
[13]; first compound 8 µM
  relative viability: 0.802
[14]; first compound 0.08 µM
  relative viability: 1.01
[14]; first compound 0.253 µM
  relative viability: 1.11
[14]; first compound 0.8 µM
  relative viability: 1.14
[14]; first compound 2.53 µM
  relative viability: 0.94
[14]; first compound 8 µM
  relative viability: 1.09
[15]; first compound 0.08 µM
  relative viability: 0.925
[15]; first compound 0.253 µM
  relative viability: 1.08
[15]; first compound 0.8 µM
  relative viability: 0.935
[15]; first compound 2.53 µM
  relative viability: 0.906
[15]; first compound 8 µM
  relative viability: 0.964
[16]; first compound 0.08 µM
  relative viability: 0.907
[16]; first compound 0.253 µM
  relative viability: 1.07
[16]; first compound 0.8 µM
  relative viability: 0.837
[16]; first compound 2.53 µM
  relative viability: 0.816
[16]; first compound 8 µM
  relative viability: 1.03
[17]; first compound 0.08 µM
  relative viability: 0.701
[17]; first compound 0.253 µM
  relative viability: 0.74
[17]; first compound 0.8 µM
  relative viability: 0.869
[17]; first compound 2.53 µM
  relative viability: 0.599
[17]; first compound 8 µM
  relative viability: 0.803
[18]; first compound 0.08 µM
  relative viability: 1.03
[18]; first compound 0.253 µM
  relative viability: 1.18
[18]; first compound 0.8 µM
  relative viability: 1.1
[18]; first compound 2.53 µM
  relative viability: 1.03
[18]; first compound 8 µM
  relative viability: 1.1
